Reference: patent publication US7906549B2, “Aminocarboxylic acid derivative and medicinal use thereof” (Ono Pharmaceutical Co., Ltd., priority 2004, dated 2011)
Structures can show the parent of a compound that is named as a salt.

How the values were obtained:
Human EDG-1 = molecular target: T1, Human EDG-1 (Homo sapiens, UniProt P21453); assay: Agonistic activity against EDG by monitoring changes in intracellular calcium ion [Ca^2+]i concentration; type: cell-based; settings: Human EDG-1 overexpressing CHO cells; read-out: EC50 (increase in intracellular calcium ion concentration)
T1 construct: expressed in transfected cells; host or cells: CHO cells
Description: Human EDG-1, EDG-3, EDG-5, or EDG-8 gene overexpressing CHO cells were cultured in Ham's F12 medium (manufactured by GibcoBRL) containing 10% FBS (fetal bovine serum), penicillin/streptomycin, and blasticidin (5 μg/ml). The cultured cells were incubated in a 5 μM Fura2-AM solution (Ham's F12 medium containing 10% of FBS, 20 mM HEPES buffer (pH7.4), and 2.5 mM probenecid) at 37° C. for 60 minutes. After washing once with Hanks solution containing 20 mM HEPES buffer (pH7.4) and 2.5 mM probenecid, the plate was soaked in the same solution. Then, the plate was set on a fluorescent drug screening system (FDSS 6000; Hamamatsu Photonics K. K.) and the intracellular calcium ion concentration was measured without stimulation for 30 seconds. A test compound (final concentration: 1 nM to 10 μM, dimethylsulfoxide (DMSO) solution) was added and S1P (final concentration: 100 nM) was added 5 minutes thereafter. Then, the increase in the intracellular calcium ion concentration was measured before and after the addition of S1P at intervals of 3 seconds (excitation wavelength: 340 nm and 380 nm, fluorescence wavelength: 500 nm).
The agonistic activity of the compound against each EDG was determined by using the peak value due to S1P-stimulation in a well containing DMSO as a substitute for the evaluated compound as a control value (A), comparing the value […] the addition of the evaluated compound with the increased value (B) in the fluorescent ratio after the addition, and calculating the increase ratio (%) in the intracellular calcium ion [Ca^2+]i concentration as: increase ratio (%)=(B/A)×100. Increase ratios of the compound at individual concentrations were determined and the EC50 value was calculated.

lymphocyte in blood = assay: Counting the number of lymphocyte in blood after oral administration; type: in vivo, male BALB/c mice or male Sprague-Dawley rats; settings: Mus musculus, 24 hours after the administration, read-out: ED50 (dose required for lowering the blood cell count to 50%)
Description: Test compounds were orally administered to male BALB/c mice or male Sprague-Dawley rats (Charles River Laboratories, Japan, Inc., 6-week-old at the time of use). 4 to 72 hours after the administration, the blood was collected from the aorta abdominalis under ether anesthesia. The number of the total leucocyte count, the lymphocyte count, the neutrophil count, the erythrocyte count, the platelet count in blood and the hematocrit value were measured with a multipurpose automatic blood cell counter (SF-3000, manufactured by Sysmex Corporation). Evaluation was made by setting the average blood cell count in a vehicle-administered group (vehicle group) as 100% and calculating the percentage of vehicle from the average blood cell count of each test compound-administered group.

[1] = system: experimental allergic encephalomyelitis; assay: Experimental allergic encephalomyelitis (EAE) model, Case 2: administration from immediately before development of symptoms; type: in vivo, Female LEW/CrlCrlj rats; settings: oral dose of 0.3 mg/kg once a day, from Day 9 to Day 19
Description: Killed Mycobacterium tuberculosis (M. tuberculosis H37 Ra, Difco, Cat No. 231141) was suspended in distilled water for injection to dissolve MBP (Myelin basic protein, SIGMA, Cat No. M-2295) (Killed Mycobacterium tuberculosis: 1000 μg/mL, MBP: 60 μg/mL). This solution was mixed with an equivalent amount of FCA (Freund Complete Adjuvant, CHEMICON, Cat No. AR001) to thereby prepare an emulsion. Female LEW/CrlCrlj rats (Charles River Laboratories, Japan, Inc., 6-week-old at the time of purchase, 7-week-old at the time of sensitization) were antigen-sensitized by a single subcutaneous injection (0.1 mL/rat) of the emulsion in the right foot pad under slight ether anesthesia, thereby inducing the symptoms of experimental allergic encephalomyelitis. […]
The EAE symptoms of the rats were observed every day from Day 7 to Day 20, and evaluated based on the following criteria: Tail relaxation: 1 point, Incomplete paralysis of hind legs: 1 point, Complete paralysis of hind legs: another 1 point, and Incontinentia: 1 point. […]
Using 0.5% MC solution (0.5 w/v % Methyl Cellulose 400cP Solution, Wako Pure Chemical Industries, Ltd., Cat No. 133-14255) as a vehicle, the test compound was forcibly administered orally in an amount of 5 mL/kg once a day from Day 9 […] sensitization to Day 19. […] The body weight was measured every day from Day 9 and the dose was determined based on the body weight of each day.

[2] = system: experimental allergic encephalomyelitis; assay: Experimental allergic encephalomyelitis (EAE) model, Case 1: administration from the day of sensitization; type: in vivo, Female LEW/CrlCrlj rats; settings: from the day of sensitization to Day 19
Description: Killed Mycobacterium tuberculosis (M. tuberculosis H37 Ra, Difco, Cat No. 231141) was suspended in distilled water for injection to dissolve MBP (Myelin basic protein, SIGMA, Cat No. M-2295) (Killed Mycobacteriumtuberculosis: 1000 μg/mL, MBP: 60 μg/mL). This solution was mixed with an equivalent amount of FCA (Freund Complete Adjuvant, CHEMICON, Cat No. AR001) to thereby prepare an emulsion. Female LEW/CrlCrlj rats (Charles River Laboratories, Japan, Inc., 6-week-old at the time of purchase, 7-week-old at the time of sensitization) were antigen-sensitized by a single subcutaneous injection (0.1 mL/rat) of the emulsion in the right foot pad under slight ether anesthesia, thereby inducing the symptoms of experimental allergic encephalomyelitis. The day of sensitization was defined as Day 0.
The EAE symptoms of the rats were observed every day from Day 8 to Day 20, and were evaluated based on the following criteria: Tail relaxation: 1 point, Incomplete paralysis of hind legs: 1 point, Complete paralysis of hind legs: another 1 point, and Incontinentia: 1 point. The maximum score was 4 points. Death was 5 points.
Using a 0.5% MC solution (0.5 w/v % Methyl Cellulose 400cP Solution, Wako Pure Chemical Industries, Ltd., Cat No. 133-14255) as a vehicle, the test compound was forcibly administered orally in an amount of 5 mL/kg once a day from […] the day of sensitization to Day 19. To a control group, the same amount of 0.5% MC solution was forcibly administered orally once a day for the same period. The body weight was measured every day from Day 0 and the dose was determined based on the body weight of each day.

heart rate = assay: Evaluation of cardiotoxicity (bradycardia); type: in vivo; settings: rabbits, intravenously administered, dose of 0.01 mg/kg
From the text: A catheter was inserted into the jugular vein and carotid artery (or the femoral vein and femoral artery) of mammals (e.g., SD rat and a rabbit). The tip of the arterial cannula was connected to a pressure transducer (DX-100, manufactured by NIHON KOHDEN CORP.), thereby measuring blood pressure through a strain pressure amplifier (AP-641G, manufactured by NIHON KOHDEN CORP.) and measuring heart rate through an instantaneous heart rate measuring unit (AT-601G, manufactured by NIHON KOHDEN CORP.), respectively. Alternatively, heart rate was measured with an electrocardiogram. Under anesthesia or under awareness after arousal was induced, the test compound was administered intravenously or administered orally. Then, changes in blood pressure and heart rate were measured.

[3] = oral dose of 0.3 mg/kg once a day

T1 sequence (P21453 whole entry): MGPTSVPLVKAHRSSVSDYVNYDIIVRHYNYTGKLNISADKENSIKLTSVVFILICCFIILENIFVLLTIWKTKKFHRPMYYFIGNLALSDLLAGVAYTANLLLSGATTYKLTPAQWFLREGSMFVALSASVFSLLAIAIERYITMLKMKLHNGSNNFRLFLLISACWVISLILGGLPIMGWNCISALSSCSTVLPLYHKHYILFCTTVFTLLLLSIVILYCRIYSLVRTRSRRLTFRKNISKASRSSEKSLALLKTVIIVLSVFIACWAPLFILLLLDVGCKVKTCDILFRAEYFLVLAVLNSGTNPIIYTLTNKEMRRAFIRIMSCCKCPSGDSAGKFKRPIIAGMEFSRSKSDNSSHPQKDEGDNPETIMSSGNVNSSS

Row | Structure (SMILES) | melting point | EC50 (Human EDG-1) | other results
1 | CC1=C(CN2CC(C(=O)O)C2)CCc2cc(OCCCc3ccc(Cl)cc3)ccc21 [Example 7-1, 1-({6-[3-(4-chlorophenyl)propoxy]-1-methyl-3,4-dihydro-2-naphthalenyl}methyl)-3-azetidinecarboxylic acid] | 165.4 to 166.9 °C |  | 
2 | CC1=C(CN2CC(C(=O)O)C2)CCc2cc(OC[C@@H](C)Cc3ccc(F)cc3)ccc21 [Example 7-4, 1-[(6-{[(2S)-3-(4-fluorophenyl)-2-methylpropyl]oxy}-1-methyl-3,4-dihydro-2-naphthalenyl)methyl]-3-azetidinecarboxylic acid] | 142.5 to 143.6 °C |  | 
3 | CC1=C(CN2CC(C(=O)O)C2)CCc2cc(OC[C@@H](C)Cc3ccc(Cl)cc3)ccc21 [Example 7-10, 1-[(6-{[(2S)-3-(4-chlorophenyl)-2-methylpropyl]oxy}-1-methyl-3,4-dihydro-2-naphthalenyl)methyl]-3-azetidinecarboxylic acid] | 148.6 to 148.9 °C |  | 
4 | CC(C)Cc1ccc(-c2nc(-c3ccc4c(c3)CCN(CCC(=O)O)C4)no2)cc1 [Example 13-4, 3-[6-[5-(4-isobutylphenyl)-1,2,4-oxadiazol-3-yl]-3,4-dihydro-2(1H)-isoquinolinyl]propanoic acid trifluoroacetate] |  | 0.041 µM | 
5 | O=C(O)CCN1CCc2c([nH]c3cc(OCCCc4ccccc4)ccc23)C1 [Example 18, 3-[7-(3-phenylpropoxy)-1,3,4,9-tetrahydro-2H-β-carbolin-2-yl]propanoic acid trifluoroacetate] |  | 0.662 µM | 
6 | O=C(O)C1CN(CC2=C(Cl)c3ccc(OCCCC4CCCCC4)cc3CC2)C1 [Example 27-7, 1-{[1-chloro-6-(3-cyclohexylpropoxy)-3,4-dihydronaphthalen-2-yl]methyl}azetidine-3-carboxylic acid] |  | 0.0007 µM | ED50 (lymphocyte in blood): 1.6 mg/kg
7 | O=C(O)CCN1CC=C(c2ccc(OCCCc3ccc(Cl)cc3)cc2)CC1 [Example 29-1, 3-[4-{4-[3-(4-chlorophenyl)propoxy]phenyl}-3,6-dihydropyridin-1(2H)-yl]propanoic acid trifluoroacetate] |  | 0.133 µM | 
8 | CCCc1ccc(COc2ccc3c(c2)CCC(CN2CC(C(=O)O)C2)=C3C)c(OC)c1 [Example 37, 1-({6-[(2-methoxy-4-propylbenzyl)oxy]-1-methyl-3,4-dihydro-2-naphthalenyl}methyl)-3-azetidinecarboxylic acid] |  | 0.001 µM | inhibition of the development of EAE symptoms [1]: almost completely inhibited; inhibition of the development of EAE symptoms ([2]; oral dose of 0.1 mg/kg once a day): almost completely inhibited; inhibition of the development of EAE symptoms [2, 3]: completely inhibited; ED50 (lymphocyte in blood): 0.029 mg/kg; decrease of heart rate (heart rate): ≤ 20%
9 | CC1=C(CN2CC(C(=O)O)C2)CCc2cc(OCc3ccc(C(F)(F)F)cc3C(F)(F)F)ccc21 [Example 37-5, 1-[(6-{[2,4-bis(trifluoromethyl)benzyl]oxy}-1-methyl-3,4-dihydro-2-naphthalenyl)methyl]-3-azetidinecarboxylic acid] |  |  | inhibition of the development of EAE symptoms [1]: had the effect of inhibiting the development of symptoms; inhibition of the development of EAE symptoms [2, 3]: almost completely inhibited
10 | CCCc1ccc(COc2ccc3c(c2)CCC(CN2CC(C(=O)O)C2)=C3Cl)c(OC)c1 [Example 37-6, 1-({1-chloro-6-[(2-methoxy-4-propylbenzyl)oxy]-3,4-dihydro-2-naphthalenyl}methyl)-3-azetidinecarboxylic acid] |  | 0.0007 µM | 
